Assay results published in ChEMBL document CHEMBL3286254, “Structure-guided discovery of 1,3,5 tri-substituted benzenes as potent and selective matriptase inhibitors exhibiting in vivo antitumor efficacy” (Bioorg Med Chem, 2014).

Assays:
Trypsin = Trypsin (Homo sapiens, UniProt P07477+P07478+P35030); test: Inhibition of human pancreas Trypsin using Boc-Gln-Ala-Arg-7-amido-4-methyl coumarin hydrobromide; format: protein assay
[1] = target: T1, Suppressor of tumorigenicity 14 protein (Homo sapiens, UniProt Q9Y5Y6); test: Inhibition of recombinant matriptase (unknown origin) using Boc-Gln-Ala-Arg-7-amido-4-methyl coumarin hydrobromide
T1 sequence (Q9Y5Y6 whole entry): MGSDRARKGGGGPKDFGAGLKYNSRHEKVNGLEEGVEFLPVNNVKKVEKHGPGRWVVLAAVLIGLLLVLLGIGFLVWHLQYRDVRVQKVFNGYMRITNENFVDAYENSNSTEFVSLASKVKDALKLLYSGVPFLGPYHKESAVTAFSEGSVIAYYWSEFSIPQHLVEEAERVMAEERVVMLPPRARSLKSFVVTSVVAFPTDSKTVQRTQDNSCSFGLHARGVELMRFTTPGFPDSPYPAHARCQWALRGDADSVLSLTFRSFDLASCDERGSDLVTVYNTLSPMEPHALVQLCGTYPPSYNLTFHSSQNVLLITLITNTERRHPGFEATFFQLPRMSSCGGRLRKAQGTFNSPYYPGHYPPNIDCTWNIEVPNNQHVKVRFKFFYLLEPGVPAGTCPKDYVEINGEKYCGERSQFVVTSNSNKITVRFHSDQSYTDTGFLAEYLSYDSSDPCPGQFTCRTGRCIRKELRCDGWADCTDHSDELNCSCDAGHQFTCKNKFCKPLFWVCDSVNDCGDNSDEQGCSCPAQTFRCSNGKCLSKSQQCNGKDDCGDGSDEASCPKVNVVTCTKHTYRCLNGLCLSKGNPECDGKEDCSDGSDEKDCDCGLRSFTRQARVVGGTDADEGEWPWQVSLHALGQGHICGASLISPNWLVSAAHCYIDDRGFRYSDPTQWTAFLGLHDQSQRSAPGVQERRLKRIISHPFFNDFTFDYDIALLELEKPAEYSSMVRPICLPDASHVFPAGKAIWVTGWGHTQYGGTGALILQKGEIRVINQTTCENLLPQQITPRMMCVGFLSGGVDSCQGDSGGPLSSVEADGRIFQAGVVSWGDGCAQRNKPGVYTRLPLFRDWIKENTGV

Coagulation factor X = Coagulation factor X (Bos taurus, UniProt P00743); test: Inhibition of bovine plasma factor 10a using CH3OCO-D-CHA-Gly-Arg-pNA.AcoH substrate
Prothrombin = Prothrombin (Homo sapiens, UniProt P00734); test: Inhibition of human thrombin using Boc-Gln-Ala-Arg-7-amido-4-methyl coumarin hydrobromide
Plasminogen = Plasminogen (Homo sapiens, UniProt P00747); test: Inhibition of human plasmin using pyroGlu-Phe-Lys-pNA.HCl
PC-3 [2] = test: Antiinvasion activity in human PC3 cells assessed as inhibition of FBS-induced cell invaded to lower surface at 10 uM for 3 days by matrigel assay; format: functional; conditions: PC-3, 72 h
DU-145 [3] = test: Cytotoxicity against human DU145 cells assessed as cell survival at 10 uM after 72 hrs by calcein AM assay; format: functional; conditions: DU-145, 72 h, read-out: Activity
PC-3 [4] = test: Cytotoxicity against human PC3 cells assessed as cell survival at 10 uM after 72 hrs by calcein AM assay; format: functional; conditions: PC-3, 72 h, read-out: Activity
DU-145 [5] = test: Antiinvasion activity in human DU145 cells assessed as inhibition of FBS-induced cell invaded to lower surface at 10 uM for 3 days by matrigel assay; format: functional; conditions: DU-145, 72 h
[6] = Antiinvasion activity in human LNCaP-C42B4 cells assessed as inhibition of FBS-induced cell invaded to lower surface at 10 uM for 3 days by matrigel assay; format: functional; conditions: LNCaP-C42B4, 72 h
[7] = Cytotoxicity against human LNCaP-C42B4 cells assessed as cell survival at 10 uM after 72 hrs by calcein AM assay; format: functional; conditions: LNCaP-C42B4, 72 h, read-out: Activity
PC-3 [8] = test: Cytotoxicity against human PC3 cells assessed as inhibition of number of colonies formed in soft agar measured on day 8; format: functional, cell-based; conditions: PC-3, 192 h
[9] = Cytotoxicity against human LNCaP-C42B4 cells assessed as inhibition of number of colonies formed in soft agar measured on day 8; format: functional, cell-based; conditions: LNCaP-C42B4, 192 h
DU-145 [10] = test: Cytotoxicity against human DU145 cells assessed as inhibition of number of colonies formed in soft agar measured on day 8; format: functional, cell-based; conditions: DU-145, 192 h

Coagulation factor X, sequence (P00743 41-180 limits assumed): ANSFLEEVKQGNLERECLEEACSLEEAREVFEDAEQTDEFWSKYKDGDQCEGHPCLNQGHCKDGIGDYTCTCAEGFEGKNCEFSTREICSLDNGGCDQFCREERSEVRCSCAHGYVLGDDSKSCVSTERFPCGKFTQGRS
Coagulation factor X, sequence (P00743 234-492 limits assumed): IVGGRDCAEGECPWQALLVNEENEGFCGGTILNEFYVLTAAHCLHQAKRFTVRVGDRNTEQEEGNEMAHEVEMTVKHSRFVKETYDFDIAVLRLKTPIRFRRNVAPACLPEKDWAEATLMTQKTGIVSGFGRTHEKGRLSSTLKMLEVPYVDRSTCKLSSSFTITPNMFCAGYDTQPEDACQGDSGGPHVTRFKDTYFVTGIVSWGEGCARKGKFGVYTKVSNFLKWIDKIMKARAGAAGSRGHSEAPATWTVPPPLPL
Plasminogen, sequence (P00747 97-580 limits assumed): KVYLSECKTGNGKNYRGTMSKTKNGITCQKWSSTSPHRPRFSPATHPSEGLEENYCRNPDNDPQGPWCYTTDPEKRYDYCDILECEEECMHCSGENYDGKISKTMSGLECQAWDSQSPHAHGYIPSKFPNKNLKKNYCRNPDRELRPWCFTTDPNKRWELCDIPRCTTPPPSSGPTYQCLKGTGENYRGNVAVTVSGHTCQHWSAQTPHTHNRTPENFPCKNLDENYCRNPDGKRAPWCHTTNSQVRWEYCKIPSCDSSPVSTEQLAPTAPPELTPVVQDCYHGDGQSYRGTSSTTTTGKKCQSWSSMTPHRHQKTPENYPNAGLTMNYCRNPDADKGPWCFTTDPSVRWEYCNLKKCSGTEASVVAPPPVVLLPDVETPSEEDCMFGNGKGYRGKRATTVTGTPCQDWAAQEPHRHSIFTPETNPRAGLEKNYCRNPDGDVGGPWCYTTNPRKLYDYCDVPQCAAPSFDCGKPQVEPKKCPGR
Plasminogen, sequence (P00747 581-810 limits assumed): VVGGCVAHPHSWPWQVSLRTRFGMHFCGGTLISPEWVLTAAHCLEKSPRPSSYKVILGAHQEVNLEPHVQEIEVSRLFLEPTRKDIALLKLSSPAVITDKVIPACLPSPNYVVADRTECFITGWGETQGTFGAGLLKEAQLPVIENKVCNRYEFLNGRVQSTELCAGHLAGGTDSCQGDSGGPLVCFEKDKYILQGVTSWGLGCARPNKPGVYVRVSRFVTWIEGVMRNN

Row | Compound | Ki (Trypsin) [nM] | Ki [1] [nM] | Ki (Coagulation factor X) [nM] | Ki (Prothrombin) [nM] | further results
1 | N=C(N)c1ccc(Oc2cc(NS(=O)(=O)c3ccc4ccccc4c3)cc(Oc3ccc(C(=N)N)cc3)c2)cc1 | 3000 | 1790 | 876 |  | 
2 | N=C(N)c1ccc(Oc2cc(Oc3ccc(C(=N)N)cc3)cc(C(=O)NCC3CCCCC3)c2)cc1 | 571 | 411 | 73 | 2410 | Ki (Plasminogen): 2160 nM
3 | N=C(N)c1ccc(Oc2cc(NC(=O)C3CCN(CCO)CC3)cc(Oc3ccc(C(=N)N)cc3)c2)cc1 | 1468 | 18 | 1160 | 4200 | 
4 | N=C(N)c1ccc(Oc2cc(NC(=O)C3CCN(CCN)CC3)cc(Oc3ccc(C(=N)N)cc3)c2)cc1 | 1338 | 18 | 62 | 2530 | Ki (Plasminogen): 2410 nM
5 | N=C(N)c1ccc(Oc2cc(Oc3ccc(C(=N)N)cc3)cc(C(=O)NC3CCN(CCCN)CC3)c2)cc1 | 1035 | 141 | 415 | 1280 | 
6 | N=C(N)c1ccc(Oc2ccc(Oc3ccc(C(=N)N)cc3)cc2)cc1 |  | 200 |  |  | 
7 | N=C(N)c1ccc(Oc2cc(Oc3ccc(C(=N)N)cc3)cc(C(=O)NC3CCCCC3)c2)cc1 | 179 | 592 | 190 | 1640 | Ki (Plasminogen): 2390 nM
8 | N=C(N)c1ccc(Oc2cc(Oc3ccc(C(=N)N)cc3)cc(C(=O)N3CCC4CCCCC4C3)c2)cc1 (stereo unspecified) | 232 | 305 | 336 | 501 | inhibition at 10 µM (PC-3 [2]): 47%; viability at 10 µM (DU-145 [3]): 78%; viability at 10 µM (PC-3 [4]): 87%; inhibition at 10 µM (DU-145 [5]): 45%; Ki (Plasminogen): 1530 nM; inhibition at 10 µM [6]: 15%; viability at 10 µM [7]: 79%
9 | NCc1ccc(Oc2cc(Oc3ccc(CN)cc3)cc(C(=O)N[C@H]3CC[C@H](N)CC3)c2)cc1 | 3850 | 1700 |  |  | 
10 | N=C(N)c1ccc(Oc2cc(OCc3ccc(Br)cc3)cc(C(=O)N[C@H]3CC[C@H](N)CC3)c2)cc1 | 2064 | 260 | 2090 | 3970 | inhibition at 10 µM (PC-3 [2]): 51%; viability at 10 µM (DU-145 [3]): 78%; viability at 10 µM (PC-3 [4]): 93%; inhibition at 10 µM (DU-145 [5]): 61%; inhibition at 10 µM [6]: 76%; viability at 10 µM [7]: 65%
11 | CCOC(=O)N1CCC(NC(=O)c2cc(Oc3ccc(C(=N)N)cc3)cc(Oc3ccc(C(=N)N)cc3)c2)CC1 | 471 | 1850 | 1030 |  | Ki (Plasminogen): 2630 nM
12 | N=C(N)c1cccc(COc2cc(OCc3cccc(C(=N)N)c3)cc(C(=O)N[C@H]3CC[C@H](N)CC3)c2)c1 | 901 | 3 | 157 | 1290 | 
13 | N=C(N)c1ccc(Oc2cc(Oc3ccc(C(=N)N)cc3)cc(C(=O)NC3CCC(O)CC3)c2)cc1 (stereo unspecified) |  | 301 | 538 | 1240 | 
14 | N=C(N)c1ccc(Oc2cc(Oc3ccc(C(=N)N)cc3)cc(C(=O)NCC3CCC(O)CC3)c2)cc1 (stereo unspecified) | 1550 | 1180 | 920 | 2850 | 
15 | N=C(N)c1ccc(Oc2cc(Oc3ccc(N)cc3)cc(C(=O)N[C@H]3CC[C@H](N)CC3)c2)cc1 | > 3000 | 1130 |  |  | 
16 | N=C(N)c1ccc(COc2cc(Oc3ccc(C(=N)N)cc3)cc(C(=O)N[C@H]3CC[C@H](N)CC3)c2)cc1 | 1868 | 10 |  | 2810 | 
17 | N=C(N)c1ccc(Oc2cc(Oc3ccc(CN)cc3)cc(C(=O)N[C@H]3CC[C@H](N)CC3)c2)cc1 | 1541 | 40 |  | 3130 | EC50 (PC-3 [8]): 485 nM; inhibition at 10 µM (PC-3 [2]): 54%; viability at 10 µM (DU-145 [3]): 90%; viability at 10 µM (PC-3 [4]): 63%; inhibition at 10 µM (DU-145 [5]): 49%; EC50 [9]: 1700 nM; inhibition at 10 µM [6]: 59%; EC50 (DU-145 [10]): 324 nM; viability at 10 µM [7]: 100%
18 | N=C(N)c1ccc(Oc2cc(Oc3ccc(C(=N)N)cc3)cc(C(=O)NC3CCN(CCO)CC3)c2)cc1 |  | 204 | 640 | 1780 | 

Row | Compound | Ki (Trypsin) [nM] | Ki [1] [nM] | Ki (Coagulation factor X) [nM] | Ki (Prothrombin) [nM] | further results
19 | N=C(N)c1ccc(Oc2cc(N)cc(Oc3ccc(C(=N)N)cc3)c2)cc1 | 534 | 1060 | 851 | 2820 | 
20 | N=C(N)c1ccc(Oc2cc(Oc3ccc(C(=N)N)cc3)cc(C(N)=O)c2)cc1 | 640 | 1620 | 785 | 1060 | 
21 | N=C(N)c1ccc(Oc2cc(OCc3ccc(Br)nc3)cc(C(=O)N[C@H]3CC[C@H](N)CC3)c2)cc1 | > 3000 | 793 | 3680 | 3980 | 
22 | N=C(N)c1ccc(Oc2cc(NS(=O)(=O)c3ccc(F)cc3)cc(Oc3ccc(C(=N)N)cc3)c2)cc1 | 1388 | 1980 | 1160 | 4850 | 
23 | N=C(N)c1ccc(Oc2cc(Oc3ccc(C(=N)N)cc3)cc(C(=O)Nc3ccc(F)cc3)c2)cc1 | 1636 | 591 | 1880 | 2100 | Ki (Plasminogen): 2670 nM
24 | N=C(N)c1ccc(Oc2cc(Oc3ccc(C(=N)N)cc3)cc(C(=O)N3CCC(CCN)CC3)c2)cc1 | 545 | 94 | 1290 | 4060 | inhibition at 10 µM (PC-3 [2]): 54%; viability at 10 µM (DU-145 [3]): 100%; viability at 10 µM (PC-3 [4]): 93%; inhibition at 10 µM (DU-145 [5]): 62%; inhibition at 10 µM [6]: 61%; viability at 10 µM [7]: 100%
25 | N=C(N)c1ccc(Oc2cc(Oc3ccc(NC(=O)CCN)cc3)cc(C(=O)N[C@H]3CC[C@H](N)CC3)c2)cc1 | > 3000 | 116 | 3580 | 3250 | 
26 | N=C(N)c1ccc(Oc2cc(Oc3ccc(N)nc3)cc(C(=O)N[C@H]3CC[C@H](N)CC3)c2)cc1 | > 3000 | 2030 |  |  | 
27 | N=C(N)c1ccc(Oc2cc(Oc3ccc(C(N)=O)cc3)cc(C(=O)N[C@H]3CC[C@H](N)CC3)c2)cc1 | > 3000 | 824 |  | 3540 | 
28 | CC1CCC(NC(=O)c2cc(Oc3ccc(C(=N)N)cc3)cc(Oc3ccc(C(=N)N)cc3)c2)CC1 (stereo unspecified) | 253 | 770 | 282 | 744 | Ki (Plasminogen): 3610 nM
29 | N=C(N)c1cccc(C[C@@H](NS(=O)(=O)c2cccc(C3CCC(N)=NC3)c2)C(=O)N2CCC(CCN)CC2)c1 (stereo partly specified) |  | 0.08 |  |  | 
30 | N=C(N)c1ccc(Oc2cc(OCc3cccc(C(=N)N)c3)cc(C(=O)N[C@H]3CC[C@H](N)CC3)c2)cc1 | 1541 | 6 | 1140 | 2680 | 
31 | N=C(N)c1ccc(Oc2cc(Oc3ccc(C(=N)N)cc3)cc(C(=O)N3CCC(C(=O)O)CC3)c2)cc1 | 718 |  |  |  | 
32 | N=C(N)c1ccc(Oc2cc(OCc3ccc(Cl)cc3)cc(C(=O)N[C@H]3CC[C@H](N)CC3)c2)cc1 |  | 470 |  |  | 
33 | N=C(N)c1ccc(Oc2cc(Oc3ccc(C(=N)N)cc3)cc(C(=O)N3CCc4ccccc4C3)c2)cc1 | 225 | 730 | 273 | 1560 | Ki (Plasminogen): 3850 nM
34 | CC1CCC(C(=O)Nc2cc(Oc3ccc(C(=N)N)cc3)cc(Oc3ccc(C(=N)N)cc3)c2)CC1 (stereo unspecified) | 516 | 545 | 743 | 2340 | Ki (Plasminogen): 1200 nM
35 | N=C(N)c1ccc(COc2cc(OCc3ccc(C(=N)N)cc3)cc(C(=O)N[C@H]3CC[C@H](N)CC3)c2)cc1 | 1022 | 23 | 1560 | 1640 | 
